According to US20100075907A1, “NEUROMEDIN U RECEPTOR AGONISTS AND USES THEREOF” (priority 2006, published 2010):
Non-standard residues stand in square brackets, D forms with d. Residues, ends and D or L forms follow the SMILES beside them. hArg = N=C(N)NCCCC[C@H](N)C(=O)O; dNle = CCCC[C@@H](N)C(=O)O

Tests used:
hNMUR1 = biological target: T1, hNMUR1 (Homo sapiens, UniProt Q9HB89); test: In vitro functional assay, HEK-hR1 cells; assay type: cell-based; set-up: expressed in transfected cells; host or cells: FLP-In CHO or HEK-293 FLP-In cells (pcDNA5); HEK-293/aeq17 lines (pIRES-puro) were also made
T1 sequence (Q9HB89 1-426): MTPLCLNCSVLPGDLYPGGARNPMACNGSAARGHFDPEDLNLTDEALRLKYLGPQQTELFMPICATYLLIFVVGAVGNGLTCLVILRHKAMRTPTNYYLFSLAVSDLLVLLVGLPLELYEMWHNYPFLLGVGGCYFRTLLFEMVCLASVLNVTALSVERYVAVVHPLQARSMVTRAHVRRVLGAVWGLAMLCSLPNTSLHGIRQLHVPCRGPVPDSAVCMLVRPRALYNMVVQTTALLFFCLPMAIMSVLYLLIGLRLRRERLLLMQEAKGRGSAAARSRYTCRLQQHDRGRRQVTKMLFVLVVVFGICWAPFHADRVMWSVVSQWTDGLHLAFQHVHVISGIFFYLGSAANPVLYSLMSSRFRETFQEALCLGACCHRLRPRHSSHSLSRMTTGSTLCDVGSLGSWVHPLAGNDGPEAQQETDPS
From the text: (§1) Human, mouse or rat cDNAs encoding NMUR1 or NMUR2 (as described in Howard et al. Nature 406: 70-74 (2000) were subcloned in pcDNA5 (Invitrogen) and transfected into FLP-In CHO cells and HEK-293 FLP-In cells purchased from Invitrogen (Carlsbad, Calif.) using lipofectamine (Invitrogen). The Flp-In system allows integration and expression of a particular gene of interest at a specific genomic location utilizing the Flp recombinase from yeast. The transfected cells were selected by growth in medium containing 200 μg/mL hygromycin (Invitrogen). Populations were frozen at early passage numbers, and these stocks were used for further studies. Stable clones that expressed the mRNAs were identified functionally by FLIPR as well as by RT-PCR. […] Two different rodent NMUR1 cell lines were thus generated: one with the codon as predicted from the genomic databases and another cell line with an engineered methionine (ATG) as the start codon. Additionally, stable cell lines expressing the human receptors were generated in HEK-293/aeq17 cells which stably express the aequorin gene under the CMV promoter. The human NMUR2 cDNA was cloned into pcDNA3.1 and human NMUR1 was subcloned into pIRES-puro (Clontech, Mountain View, Calif.), after transfection cells were selected in media containing G418 and either hygromycin (NMUR2) or puromycin (NMUR1).
(§2) The NMU receptors signal primarily through Gαq/11 proteins; therefore calcium mobilization assays can be utilized for functional activity.
(§3) Stable cell lines expressing human and or rodent NMUR1 or human NMUR2 receptors were plated at a density of 12,000 cells per well overnight on poly-lysine coated 384-well black-walled plates. The following day, the media was removed from the plates and the cells were subsequently loaded with Fluo-3 (Molecular Probes), a calcium sensitive dye, diluted in FLIPR buffer (1× Hank's buffered saline containing 20 mM HEPES, 0.1% BSA, 2.5 mM probenecid (Sigma) and 1.6 mM TR40). All reagents are from Invitrogen unless otherwise noted. Peptide stocks were resuspended in DMSO at a stock concentration of 2 mM and diluted in FLIPR buffer on the day of the experiment to a 4 μM working stock solution.
(§4) After a 90 minute incubation at room-temperature, cell plates were loaded onto a FLIPR (Molecular Devices) to monitor cellular fluorescence (excitation=488 nm; emission=540 nm) before and after compound/peptide addition. Eight to twelve point dose responses were tested on NMUR-expressing cell lines using FLIPR with 1 μM peptide as the highest dose. The response after peptide addition was taken as the maximum fluorescence units minus the fluorescence immediately prior to stimulation for each well. EC50 values were calculated using GraphPad Prism (San Diego, Calif.) software.
In addition to FLIPR, NMU receptor function can also be evaluated using an aequorin assay. Stable cell lines expressing the aequorin jelly fish gene can be used to report the activation of GPCRs by monitoring intracellular calcium mobilization. The objective is to identify compounds which specifically stimulate aequorin bioluminescence. Calcium-dependent luminescence is generated by the treatment of cells with the coelenterate luciferin, coelenterazine. Briefly, confluent monolayers of HEK-293/aeq 17 cells expressing hNMUR1 or hNMUR2 are “charged” with coelenterazine (Molecular Probes, Carlsbad, Calif.). Confluent T75 flasks are rinsed with media containing 300 μM glutathione and 0.1% FBS. Cells are incubated at 37° C. for one hour in 8 mL media, 0.1% FBS, 300 μM glutathione, and 20 μM coelenterazine. T75 flasks are subsequently rinsed with 6 mL ECB buffer (140 mM NaCl, 20 mM KCl, 20 mM HEPES, 5 mM glucose, 1 mM MgCl, 1 mM CaCl2, 0.1 mg/mL BSA, PH 7.3-7.4). Cells are removed from the flask in ECB buffer, pelleted, and resuspended at a density of 2×10^5 cells/mL. Agonists are added to the cells and activity is determined using a luminometer. […]

hNMUR2 = hNMUR2 (Homo sapiens, UniProt Q9GZQ4); test: In vitro functional assay, HEK-hR2 cells; assay type: cell-based; set-up: expressed in transfected cells; host or cells: FLP-In CHO or HEK-293 FLP-In cells (pcDNA5); HEK-293/aeq17 lines (pcDNA3.1) were also made; % Activity: concentration or dose not given beside the values
hNMUR2, sequence (Q9GZQ4 whole entry): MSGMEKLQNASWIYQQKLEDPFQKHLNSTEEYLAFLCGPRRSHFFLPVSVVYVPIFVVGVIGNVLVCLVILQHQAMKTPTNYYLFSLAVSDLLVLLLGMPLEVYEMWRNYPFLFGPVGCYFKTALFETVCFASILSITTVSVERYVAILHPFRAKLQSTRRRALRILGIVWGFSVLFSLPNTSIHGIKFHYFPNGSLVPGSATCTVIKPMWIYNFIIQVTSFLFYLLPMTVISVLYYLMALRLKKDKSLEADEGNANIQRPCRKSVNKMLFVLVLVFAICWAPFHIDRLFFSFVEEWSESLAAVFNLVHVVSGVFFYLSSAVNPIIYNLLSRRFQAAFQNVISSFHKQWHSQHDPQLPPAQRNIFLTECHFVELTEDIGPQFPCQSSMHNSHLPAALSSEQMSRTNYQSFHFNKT
From the text: as §1, §2, §3, §4
In addition to FLIPR, NMU receptor function can also be evaluated using an aequorin assay. Stable cell lines expressing the aequorin jelly fish gene can be used to report the activation of GPCRs by monitoring intracellular calcium mobilization. The objective is to identify compounds which specifically stimulate aequorin bioluminescence. Calcium-dependent luminescence is generated by the treatment of cells with the coelenterate luciferin, coelenterazine. Briefly, confluent monolayers of HEK-293/aeq 17 cells expressing hNMUR1 or hNMUR2 are “charged” with coelenterazine (Molecular Probes, Carlsbad, Calif.). Confluent T75 flasks are rinsed with media containing 300 μM glutathione and 0.1% FBS. Cells are incubated at 37° C. for one hour in 8 mL media, 0.1% FBS, 300 μM glutathione, and 20 μM coelenterazine. T75 flasks are subsequently rinsed with 6 mL ECB buffer (140 mM NaCl, 20 mM KCl, 20 mM HEPES, 5 mM glucose, 1 mM MgCl, 1 mM CaCl2, 0.1 mg/mL BSA, PH 7.3-7.4). Cells are removed from the flask in ECB buffer, pelleted, and resuspended at a density of 2×10^5 cells/mL. Agonists are added to the cells and activity is determined using a luminometer.

| Structure (SMILES) | % Activity (hNMUR1; Table 8, HEK-hR1, functional) | % Activity (hNMUR2; Table 8, HEK-hR2, functional) | IC50 (hNMUR2; Table 8, HEK-hR2, functional) | IC50 (hNMUR1; Table 8, HEK-hR1, functional) | % Activity (hNMUR1; Table 9, HEK-hR1, functional) | EC50 (hNMUR1; Table 9, HEK-hR1, functional) | % Activity (hNMUR2; Table 9, HEK-hR2, functional) | EC50 (hNMUR2; Table 9, HEK-hR2, functional) |
| --- | --- | --- | --- | --- | --- | --- | --- | --- |
| CC(C)C[C@@H](NC(=O)[C@H](Cc1ccccc1)NC(=O)[C@@H](N)Cc1ccc(O)cc1)C(=O)N[C@@H](Cc1c[nH]c2ccccc12)C(=O)N[C@@H](CCCNC(=N)N)C(=O)N1CCC[C@H]1C(=O)N[C@@H](CCCNC(=N)N)C(=O)N[C@@H](CC(N)=O)C(N)=O [Agonist B, YF-(D-L)-WRPRN-CONH2] (H-YF[dL]WRPRN-NH2) | 103% | 0% | > 1000 nM | – | – | – | – | – |
| C[C@@H](NC(=O)[C@H](Cc1ccccc1)NC(=O)[C@@H](N)Cc1ccc(O)cc1)C(=O)N[C@@H](Cc1c[nH]c2ccccc12)C(=O)N[C@@H](CCCNC(=N)N)C(=O)N1CCC[C@H]1C(=O)N[C@@H](CCCNC(=N)N)C(=O)N[C@@H](CC(N)=O)C(N)=O [Agonist D, YF-(D-A)-WRPRN-CONH2] (H-YF[dA]WRPRN-NH2; N-terminus assumed) | 96% | 0% | > 1000 nM | – | – | – | – | – |
| CC(=O)N[C@@H](Cc1ccccc1)C(=O)N[C@H](CC(C)C)C(=O)N[C@@H](Cc1c[nH]c2ccccc12)C(=O)N[C@@H](CCCNC(=N)N)C(=O)N1CCC[C@H]1C(=O)N[C@@H](CCCNC(=N)N)C(=O)N[C@@H](CC(N)=O)C(N)=O [Agonist E, Ac-F-(D-L)-WRPRN-CONH2] (Ac-F[dL]WRPRN-NH2) | 100% | 1.8% | > 1000 nM | – | – | – | – | – |
| CC(C)C[C@@H](NC(=O)[C@H](Cc1ccccc1)NC(=O)[C@H](Cc1ccc(O)cc1)NC(=O)CNC(=O)[C@H](CCCNC(=N)N)NC(=O)[C@H](CO)NC(=O)[C@H](CCC(N)=O)NC(=O)[C@H](CO)NC(=O)[C@H](C)NC(=O)[C@H](Cc1ccccc1)NC(=O)[C@@H]1CCCN1C(=O)[C@H](CO)NC(=O)[C@H](CCC(N)=O)NC(=O)[C@H](Cc1ccccc1)NC(=O)[C@H](CCC(=O)O)NC(=O)[C@H](CCC(=O)O)NC(=O)[C@H](CC(=O)O)NC(=O)[C@@H](NC(=O)[C@H](CCCNC(=N)N)NC(=O)[C@@H](N)Cc1ccccc1)C(C)C)C(=O)N[C@@H](Cc1c[nH]c2ccccc12)C(=O)N[C@@H](CCCNC(=N)N)C(=O)N1CCC[C@H]1C(=O)N[C@@H](CCCNC(=N)N)C(=O)N[C@@H](CC(N)=O)C(N)=O [Agonist H] (H-FRVDEEFQSPFASQSRGYF[dL]WRPRN-NH2; N-terminus assumed) | 88% | 0% | > 1000 nM | 19 nM | – | – | – | – |
| CC(C)C[C@H](NC(=O)[C@H](Cc1c[nH]c2ccccc12)NC(=O)[C@@H](N)Cc1ccccc1)C(=O)N[C@@H](Cc1ccccc1)C(=O)N[C@@H](CCCNC(=N)N)C(=O)N1CCC[C@H]1C(=O)N[C@@H](CCCCNC(=N)N)C(=O)N[C@@H](CC(N)=O)C(N)=O [Agonist I, FWLFRP-(Harg)-N-CONH2] (H-FWLFRP[hArg]N-NH2) | – | – | – | – | 7% | > 1000 nM | 99% | – |
| CC(C)C[C@H](NC(=O)[C@H](Cc1c[nH]c2ccccc12)NC(=O)[C@@H](N)Cc1ccccc1)C(=O)N[C@@H](Cc1ccccc1)C(=O)N[C@@H](CCCNC(=N)N)C(=O)N[C@@H](C)C(=O)N[C@@H](CCCCNC(=N)N)C(=O)N[C@@H](CC(N)=O)C(N)=O [Agonist J, FWLFRA-(Harg)-N-CONH2] (H-FWLFRA[hArg]N-NH2) | – | – | – | – | 0% | > 1000 nM | 59% | – |
| CCCC[C@@H](NC(=O)[C@H](CCCNC(=N)N)NC(=O)[C@H](C)NC(=O)[C@H](CCCNC(=N)N)NC(=O)[C@H](Cc1ccccc1)NC(=O)[C@H](CC(C)C)NC(=O)[C@H](Cc1ccccc1)NC(=O)[C@@H](N)Cc1c[nH]c2ccccc12)C(N)=O [Agonist K, WFLFRAR-(D-Nle)-CONH2] (H-WFLFRAR[dNle]-NH2) | – | – | – | – | 61% | 400 nM | 100% | 2 nM |
| CC(C)C[C@H](NC(=O)[C@H](Cc1c[nH]c2ccccc12)NC(=O)[C@H](Cc1ccccc1)NC(=O)CNC(=O)[C@H](CCCNC(=N)N)NC(=O)[C@H](CO)NC(=O)[C@H](CCC(N)=O)NC(=O)[C@H](CO)NC(=O)[C@H](C)NC(=O)[C@H](Cc1ccccc1)NC(=O)[C@@H]1CCCN1C(=O)[C@H](CO)NC(=O)[C@H](CCC(N)=O)NC(=O)[C@H](Cc1ccccc1)NC(=O)[C@H](CCC(=O)O)NC(=O)[C@H](CCC(=O)O)NC(=O)[C@H](CC(=O)O)NC(=O)[C@@H](NC(=O)[C@H](CCCNC(=N)N)NC(=O)[C@@H](N)Cc1ccccc1)C(C)C)C(=O)N[C@@H](Cc1ccccc1)C(=O)N[C@@H](CCCNC(=N)N)C(=O)N1CCC[C@H]1C(=O)N[C@@H](CCCCNC(=N)N)C(=O)N[C@@H](CC(N)=O)C(N)=O [Agonist O] (H-FRVDEEFQSPFASQSRGFWLFRP[hArg]N-NH2; N-terminus assumed) | – | – | – | – | 35% | 420 nM | 67% | 16 nM |
| CC(C)C[C@H](NC(=O)[C@H](Cc1c[nH]c2ccccc12)NC(=O)[C@H](Cc1ccccc1)NC(=O)CNC(=O)[C@H](CCCNC(=N)N)NC(=O)[C@H](CO)NC(=O)[C@H](CCC(N)=O)NC(=O)[C@H](CO)NC(=O)[C@H](C)NC(=O)[C@H](Cc1ccccc1)NC(=O)[C@@H]1CCCN1C(=O)[C@H](CO)NC(=O)[C@H](CCC(N)=O)NC(=O)[C@H](Cc1ccccc1)NC(=O)[C@H](CCC(=O)O)NC(=O)[C@H](CCC(=O)O)NC(=O)[C@H](CC(=O)O)NC(=O)[C@@H](NC(=O)[C@H](CCCNC(=N)N)NC(=O)[C@@H](N)Cc1ccccc1)C(C)C)C(=O)N[C@@H](Cc1ccccc1)C(=O)N[C@@H](CCCNC(=N)N)C(=O)N[C@@H](C)C(=O)N[C@@H](CCCCNC(=N)N)C(=O)N[C@@H](CC(N)=O)C(N)=O [Agonist P] (H-FRVDEEFQSPFASQSRGFWLFRA[hArg]N-NH2; N-terminus assumed) | – | – | – | – | 11% | – | 100% | – |
